Reference: paper PMC11157491, “Novel Alaninamide Derivatives with Drug-like Potential for Development as Antiseizure and Antinociceptive Therapies—In Vitro and In Vivo Characterization” (ACS Chemical Neuroscience, 2024)
Read-outs that look alike come from different tables or passages of the source.

Columns and labels:
[1] = Metabolic stability in human liver microsomes; assay type: in vitro ADME; details: human, human liver microsomes; HLMs, 120 min; read-out: metabolic stability (% remaining after the reaction with HLMs)
Excerpt: Molecular mass Molecular mass of the
Substrate (m/z) metabolite (m/z) Metabolic pathway
* Reference unstable drug; metabolic stability determined using the same procedure published previously

[2] = system: mice; assay: Formalin test; assay type: in vivo; details: Mus musculus, ip, 30 min before test
Excerpt: One of the most useful screening methods for testing clinically relevant molecules is the formalin model. The local injection of formalin solution induces two distinct phases of the nociceptive response, which are associated with immediate activation of nociceptors (phase I) and sensitization of spinal reflex circuits (phase II).[41] It is important to note that during the second phase, there is also an inflammatory response to tissue damage. […] Thus, this model has been successfully used to assess the analgesic efficacy of a variety of compounds, including ASMs.[42]
The experimental groups consisted of 10 adult male Albino Swiss mice (CD-1, 18–25 g). Each animal was tested only once. Immediately after the assay, the animals were sacrificed by cervical dislocation. Behavioral measurements were observed by trained observers. […] The in vivo procedure for the model of capsaicin-induced nociception was previously reported;[67] the animals were pretreated with vehicle (10 mL/kg, negative control), and the dose–response of investigated compounds was evaluated at 12.5, 25, and 50 mg/kg.
Data are presented as means ± standard error of the mean (SEM). […] Statistically significant differences between groups were calculated using one-way analysis of variance (ANOVA) and the post hoc Dunnett’s multiple comparison test or two-way analysis of variance (ANOVA). […]

[3] = system: fast voltage-gated sodium channels in rat prefrontal cortex pyramidal neurons; assay: Patch-clamp recording of fast sodium currents; assay type: cell-based; details: control = 1.0
Experimental: Due to the relatively high concentration of compounds used in the in vitro assays, as well as brain concentration of 28 (>10 μM after 25 mg/kg dose administration) determined in the pharmacokinetic studies (see Section 2.10), it seems unlikely that compounds described herein act by any of mechanisms tested in the aforementioned binding and functional studies. […] Thus, in further in vitro assays, 28 was also evaluated for its influence on fast voltage-gated sodium channels in rat prefrontal cortex pyramidal neurons using the patch-clamp technique (maximal currents were evoked by rectangular voltage steps to −10 mV).
The averaged, maximal normalized amplitudes of voltage-gated sodium currents were 1.0 in control, 0.72 ± 0.06 after application of 28, and 0.86 ± 0.05 after wash-out (control vs 28p < 0.05).
Patch-clamp studies in prefrontal cortex pyramidal neurons. The methodology of slice preparation, preparation of dispersed cortical neurons, and sodium current recording technique were the same as in our previous study.[75]

[4] = system: mice; assay: Streptozotocin (STZ)-induced peripheral neuropathy, von Frey test; assay type: in vivo; details: 21 days after STZ
Experimental: In the first group, the initial value of 6.08 ± 0.29 (baseline) decreased to the value of 4.30 ± 0.21 (70.7% of the baseline). […] In the second group, the initial value of 6.08 ± 0.29 (baseline) decreased to the value of 5.02 ± 0.27 (82.6% of the baseline). The administration of 28 at a dose of 25 mg/kg elevated the pain threshold to the value of 7.69 ± 0.41, which corresponds with 126.5% of the baseline. In the third group, the baseline was decreased to the value of 5.35 ± 0.27 (88.0% of the baseline). The effect was not statistically significant. The administration of 28 at a dose of 50 mg/kg elevated the pain threshold to a value as high as 8.70 ± 0.41, which corresponds with 143.1% of the baseline.
The experimental groups consisted of 10 adult male Albino Swiss mice (CD-1, 18–25 g). Each animal was tested only once. Immediately after the assay, the animals were sacrificed by cervical dislocation. Behavioral measurements were observed by trained observers. The in vivo antinociceptive assays were in accordance with Polish regulations and the European Union Directive of 22 Sept 2010 (2010/63/EU). All procedures were carried out according to the rules of the International Council on Laboratory Animal Science (ICLAS) and were approved by the Local Ethics Committee in Cracow, Poland (104/2015, 279/2019, and 614/2022). The tested substances were suspended in a 1% aqueous solution of Tween 80 and were injected i.p. 30 min prior to the test. Control group animals (negative control) were administered with an appropriate amount of vehicle (Tween 80, 1% aqueous solution, i.p.) 30 min prior to the test. […] Before formalin application, different groups of animals were injected i.p. with vehicle (10 mL/kg, negative control). The in vivo procedure for the model of capsaicin-induced nociception was previously reported;[67] the animals were pretreated with vehicle (10 mL/kg, negative control), and the dose–response of investigated compounds was evaluated at 12.5, 25, and 50 mg/kg.
Data are presented as means ± standard error of the mean (SEM). GraphPad Prism Software (v.5) was used to analyze the vast majority of data. Statistically significant differences between groups were calculated using one-way analysis of variance (ANOVA) and the post hoc Dunnett’s multiple comparison test or two-way analysis of variance (ANOVA). The criterion for significance was set at p < 0.05. The log-probit method was applied to statistically determine the ED50 values with 95% confidence limits.

[5] = target: T1, hERG potassium channel (Homo sapiens, UniProt Q12809); assay: hERG potassium channel binding; details: HEK-293 cells expressing human recombinant hERG, human recombinant HEK-293 cell, read-out: % inhibition of control specific binding
T1 construct: Eurofins (contract assay)
Excerpt: Moreover, we also evaluated its influence on the potassium channel (hERG), which is known to be one of the most critical “off-targets” responsible for the harmful proarrhythmic activity of drugs and drug candidates.[56] […] The latter result is particularly important, since it minimizes the risk of potential proarrhythmic activity of 28. Despite this positive result, more detailed off-target profiling is undoubtedly necessary in the next steps of preclinical development.
Binding/functional studies were carried out commercially in Eurofins Laboratories (Poitiers, France) and Eurofins Panlabs Discovery Services Taiwan, Ltd. (New Taipei City, Taiwan) using testing procedures that were reported previously (for details, see Table S2).
Table S2. Radioligand binding and functional assays. […]
Potassium channel (hERG) […]
Assays were performed commercially in Eurofins Laboratories ( Poitiers, France) or Eurofins Panlabs Discovery Services
Taiwan, Ltd. (New Taipei City, Taiwan).

T1 sequence (Q12809 whole entry): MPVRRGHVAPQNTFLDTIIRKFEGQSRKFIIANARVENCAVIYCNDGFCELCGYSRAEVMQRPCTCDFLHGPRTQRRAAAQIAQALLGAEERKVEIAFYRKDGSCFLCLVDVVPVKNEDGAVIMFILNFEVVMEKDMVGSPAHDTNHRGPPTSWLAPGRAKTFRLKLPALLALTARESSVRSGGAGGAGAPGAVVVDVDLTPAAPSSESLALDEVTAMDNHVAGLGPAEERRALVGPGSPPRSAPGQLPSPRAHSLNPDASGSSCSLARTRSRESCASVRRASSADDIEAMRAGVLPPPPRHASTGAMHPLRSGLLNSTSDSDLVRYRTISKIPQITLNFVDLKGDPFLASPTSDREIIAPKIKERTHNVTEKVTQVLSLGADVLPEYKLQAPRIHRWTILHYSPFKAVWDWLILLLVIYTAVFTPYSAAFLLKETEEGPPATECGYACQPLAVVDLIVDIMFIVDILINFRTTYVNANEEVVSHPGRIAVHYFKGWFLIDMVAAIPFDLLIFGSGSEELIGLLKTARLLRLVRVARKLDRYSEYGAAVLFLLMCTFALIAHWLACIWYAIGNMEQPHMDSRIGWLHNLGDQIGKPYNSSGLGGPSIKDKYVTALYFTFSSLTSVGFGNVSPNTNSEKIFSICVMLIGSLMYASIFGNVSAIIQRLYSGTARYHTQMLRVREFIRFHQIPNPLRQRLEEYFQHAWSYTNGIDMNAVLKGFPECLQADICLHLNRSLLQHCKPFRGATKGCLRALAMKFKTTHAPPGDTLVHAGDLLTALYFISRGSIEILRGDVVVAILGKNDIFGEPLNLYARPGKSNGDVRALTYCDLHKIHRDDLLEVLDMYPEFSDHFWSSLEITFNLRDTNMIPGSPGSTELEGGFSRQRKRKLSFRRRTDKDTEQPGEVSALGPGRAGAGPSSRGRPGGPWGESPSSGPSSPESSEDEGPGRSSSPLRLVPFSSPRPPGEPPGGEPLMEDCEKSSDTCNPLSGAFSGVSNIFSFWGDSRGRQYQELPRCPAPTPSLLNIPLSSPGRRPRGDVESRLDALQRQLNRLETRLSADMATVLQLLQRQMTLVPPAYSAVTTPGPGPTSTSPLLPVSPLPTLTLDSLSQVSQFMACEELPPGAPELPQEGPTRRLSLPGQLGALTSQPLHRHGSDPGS

| remaining at 2 h [1] | SMILES | ED50 ([2]; read-out: ED50 formalin test phase I (acute phase)) | ED50 ([2]; read-out: ED50 formalin test phase II (late phase)) | averaged maximal normalized amplitude of voltage-gated sodium currents ([3]; 10 μM, after application) | averaged maximal normalized amplitude of voltage-gated sodium currents ([3]; after wash-out) | pain threshold after compound, % of the baseline ([4]; 12.5 mg/kg) | pain threshold (von Frey) after compound ([4]; 25 mg/kg) | pain threshold after compound, % of the baseline ([4]; 25 mg/kg) | pain threshold (von Frey) after compound ([4]; 50 mg/kg) | pain threshold after compound, % of the baseline ([4]; 50 mg/kg) | inhibition at 100 µM [5] |
| --- | --- | --- | --- | --- | --- | --- | --- | --- | --- | --- | --- |
| 93.5% | CC(=O)NC(C)C(=O)N1CCN(c2cccc(C(F)(F)F)c2)CC1 (centres unmarked) [Compound 26, N-(1-oxo-1-(4-(3-(Trifluoromethyl)phenyl)piperazin-1-yl)propan-2-yl)acetamide] | – | – | – | – | – | – | – | – | – | – |
| – | CC(=O)NC(C)C(=O)N1CCN(c2cccc(OC(F)(F)F)c2)CC1 (centres unmarked) [Compound 28, N-(1-oxo-1-(4-(3-(Trifluoromethoxy)phenyl)piperazin-1-yl)propan-2-yl)acetamide] | 34.3 mg/kg | 22 mg/kg | 0.72 ± 0.06 | 0.86 ± 0.05 | 100.0% | 7.69 ± 0.41 | 126.5% | 8.70 ± 0.41 | 143.1% | 12.9% |
